pIC50, pKi: −log10 of the molar value. Where two headings read alike, the source gives them in different places.

The subject of assay [1] is rat carotid artery. Description: Rat model of FeCl3-induced platelet-dependent arterial thrombosis. Type of assay: in vivo, rat (Male Harlan Sprague Dawley).
Text: In this model a platelet-rich, occlusive thrombus is formed in a segment of the rat carotid artery treated locally with a fresh solution of FeCl3 absorbed to a piece of filter paper. The FeCl3 is thought to diffuse into the treated segment of artery and causes de-endothelialization of the affected vessel surface. […] The effect of a test compound on the incidence of occlusive thrombus formation following the application of the FeCl3 is monitored by ultrasonic flowtometry and is used as the primary end point. […] Male Harlan Sprague Dawley rats (420-450 g) were acclimated at least 72 hours prior to use and fasted for 12 hours prior to surgery with free access to water. The animals were prepared, anesthetized with Nembutal followed by the insertion of catheters for blood pressure monitoring, drug and anesthesia delivery. The left carotid artery was isolated by making a midline cervical incision followed by blunt dissection and spreading techniques to separate a 2 cm segment of the vessel from the carotid sheath. A silk suture was inserted under the proximal and distal ends of the isolated vessel to provide clearance for the placement of a ultrasonic flow probe (Transonic) around the proximal end of the vessel. The probe was then secured with a stationary arm. […] The test compound was administered as a single intravenous bolus at the doses outlined in Table 3 after placement of the flow probe and 5 minutes prior to the application of the FeCl3 thrombogenic stimulus (t=0). […] Blood pressure, blood flow, heart rate, and respiration were monitored for 60 minutes. The incidence of occlusion (defined as the attainment of zero blood flow) was recorded as the primary end point.
For assay [2], the target named is Purified human alpha-thrombin (Homo sapiens, UniProt P00734). Description: in vitro thrombin inhibition assay, IC50 (chromogenic substrate Pefachrome t-PA). Type of assay: biochemical. The conditions noted are these: Table 1; 0.25 nM thrombin, 300 μM substrate, pH 7.5, 30 minute incubation. The protocol: (§1) The ability of the compounds of the present invention to act as inhibitors of thrombin and plasmin catalytic activity was assessed by determining the concentration which inhibited enzyme activity by 50%, (IC50), using the purified human enzymes.
(§2) The buffer used for all assays was HBSA (10 mM HEPES, pH 7.5, 150 mM sodium chloride, 0.1% bovine serum albumin).
(§3) The assay for IC50 determinations was conducted by combining in appropriate wells of a Corning microtiter plate, 50 microliters of HBSA, 50 microliters of the test compound at a specified concentration (covering a broad concentration range) diluted in HBSA (or HBSA alone for Vo (uninhibited velocity) measurement), and 50 microliters of the enzyme diluted in HBSA. Following a 30 minute incubation at ambient temperature, 50 microliters of the substrate at the concentrations specified below, was added to the wells yielding a final total volume of 200 microliters. The initial velocity of chromogenic substrate hydrolysis was measured by the change in absorbance at 405 nm using a Thermo Max® Kinetic Microplate Reader over a 5 minute period in which less than 5% of the added substrate was utilized. The concentration of added inhibitor which caused a 50% decrease in the initial rate of hydrolysis was defined as the IC50 value.
Thrombin catalytic activity was determined using the chromogenic substrate Pefachrome t-PA (CH3 SO2 -D-hexahydrotyrosine-glycyl-L-arginine-p-nitroaniline, obtained from Pentapharm Ltd.). The substrate was made up in deionized water followed by dilution in HBSA prior to the assay in which the final concentration was 300 μM (about 10-times Km). Purified human alpha-thrombin was obtained from Enzyme Research Laboratories, Inc. The enzyme was diluted into HBSA prior to the assay in which the final concentration was 0.25 nM.

Assay [3] has as its system human plasma. The assay is described as follows: activated partial thromboplastin time (APTT) in citrated human plasma. The settings on record: control clotting time 28.3 sec. Type of assay: biochemical. The protocol: (§4) The ex Vivo anticoagulant effects of BzlSO2 -Met[S(O2)]-Pro-Arg-al was determined by measuring the prolongation of the activated partial thromboplastin time (APTT) over a broad concentration range of the added inhibitor, using pooled normal human and rat plasma. Fresh frozen citrated pooled normal human plasma was obtained from George King Biomedical, Overland Park, Kans. Pooled normal rat plasma was prepared from citrated whole blood collected from anesthetized rats using standard procedures. The plasma was flash frozen and stored at -80° C. until use. Measurements APTT was made using the Coag-A-Mate RA4 automated coagulometer (General Diagnostics, Organon Technica, Oklahoma City, Okla.) using the Automated APTT reagent (Organon Technica, Durham, N.C.) as the initiator of clotting according to the manufacturer's instructions.
(§5) The assay was conducted by making a series of dilutions of the test compounds in rapidly thawed plasma followed by adding 200 microliters to the wells of the assay carousel.
(§6) The elevation in APTT due to increasing concentration of compound is presented relative to the control clotting time for rat (19.75 sec) and human (28.3 sec) plasma which is set to a value of 1.0.

In assay [4] the test system is rat plasma. Description: activated partial thromboplastin time (APTT) in citrated rat plasma. The conditions noted are these: control clotting time 19.75 sec. Type of assay: biochemical. The procedure: as §4, §5, §6
The target of assay [5] is human alpha-thrombin (Homo sapiens, UniProt P00734). The assay is described as follows: Determination of inhibition constant Ki for thrombin (steady state velocities, Pefachrome t-PA). Type of assay: biochemical. The procedure: The ability of the compounds of the present invention to act as inhibitors of thrombin catalytic activity was assessed by determining their inhibition constant, Ki.
Enzyme activity was determined using the chromogenic substrate Pefachrome t-PA (CH3 SO2 -D-hexahydrotyrosine-glycyl-L-arginine-p-nitroaniline), obtained from Pentapharm Ltd. The substrate was reconstituted in deionized water prior to use. Purified human alpha-thrombin (3000U/mg specific activity) was obtained from Enzyme Research Laboratories, Inc. The buffer used for all assays was HBSA (10 mM HEPES, pH 7.5, 150 mM sodium chloride, 0.1% bovine serum albumin).
Velocities of chromogenic substrate hydrolysis which occurred over 40 minutes was measured by the change in absorbance at 405 nm using a Thermo Max® Kinetic Microplate Reader.
Ki values were determined for test compounds using the relationships developed by Williams and Morrison, Methods in Enzymology, 63:437 (1979) using steady state velocities (Vs) measured over 40 minutes. The extent of substrate hydrolysis was less than 5% over the course of this assay.
Table 2 below gives the Ki values for selected test compounds.

The target of assay [6] is Purified human plasmin (Homo sapiens, UniProt P00747). The assay is described as follows: in vitro plasmin inhibition assay, IC50 (chromogenic substrate S-2251). The format is biochemical. The settings on record: Table 1; 1.0 nM plasmin, 300 μM substrate, pH 7.5, 30 minute incubation. The procedure: as §1, §2, §3
Sequence of Purified human plasmin (P00747 581-810 limits assumed): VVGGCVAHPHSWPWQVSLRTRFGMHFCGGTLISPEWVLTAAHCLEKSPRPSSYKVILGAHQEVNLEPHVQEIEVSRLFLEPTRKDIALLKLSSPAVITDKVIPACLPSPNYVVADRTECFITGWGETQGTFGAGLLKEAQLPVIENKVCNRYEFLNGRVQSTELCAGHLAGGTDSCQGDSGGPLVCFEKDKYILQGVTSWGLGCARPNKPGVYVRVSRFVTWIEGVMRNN
Sequence of Purified human plasmin (P00747 97-580 limits assumed): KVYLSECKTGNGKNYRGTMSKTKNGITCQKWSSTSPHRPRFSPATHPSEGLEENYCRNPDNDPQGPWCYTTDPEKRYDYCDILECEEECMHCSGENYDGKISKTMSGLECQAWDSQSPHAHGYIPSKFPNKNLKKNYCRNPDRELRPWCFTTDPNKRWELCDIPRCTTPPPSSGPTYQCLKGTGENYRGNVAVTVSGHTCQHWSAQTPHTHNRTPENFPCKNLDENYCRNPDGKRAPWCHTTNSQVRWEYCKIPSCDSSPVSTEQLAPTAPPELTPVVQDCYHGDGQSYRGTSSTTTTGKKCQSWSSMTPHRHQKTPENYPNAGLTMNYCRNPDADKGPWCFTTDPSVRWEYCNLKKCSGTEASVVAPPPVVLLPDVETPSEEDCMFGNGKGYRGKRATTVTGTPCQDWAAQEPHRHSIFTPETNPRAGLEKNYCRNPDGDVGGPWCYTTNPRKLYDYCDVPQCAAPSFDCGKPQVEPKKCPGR
Plasmin catalytic activity was determined using the chromogenic substrate, S-2251 [D-valyl-L-leucyl-L-lysine-p-nirtoanilide dihydrochloride], which was obtained from Kabi Diagnostica. The substrate was made up in deionized water followed by dilution in HBSA prior to the assay in which the final concentration was 300 μM (about 5-times Km). Purified human plasmin was obtained from Enzyme Research Laboratories, Inc. The enzyme was diluted into HBSA prior to assay in which the final concentration was 1.0 nM.

For orientation: ED50 means the dose at which the effect has come halfway, by size or by number of responders. Usually pIC50 stands for −log10 of the IC50, conventionally taken in molar units. Read a low pIC50 as a high IC50. As usually defined, the pKi is the negative decadic logarithm of the Ki, by convention in mol/L. For the molecule `CS(=O)(=O)CC[C@H](NS(=O)(=O)Cc1ccccc1)C(=O)N1CCC[C@H]1C(=O)N[C@H](C=O)CCCNC(=N)N` [Example 27, N-benzylsulfonyl-L-methionine sulfone-L-proline-L-argininal], the “incidence of thrombotic occlusion (in words)” value in assay [1] (FeCl3 model, rat, over all doses of Table 3) is “reduction in the incidence of thrombotic occlusion”. In addition, the ED50 in assay [1] (Rattus norvegicus, read-out: ED50 for thrombus prevention) is 0.7 mg/kg. The negative-log IC50 (pIC50) in assay [2] is 9.00; in assay [6] it was 7.07. For the same molecule, the “prolongation of APTT” value in assay [3] and in assay [4] was “prolonged the APTT in a dose dependent manner” each time. Further, the pKi in assay [5] (Table 2, human alpha-thrombin 0.5 nM, steady state velocities over 40 minutes, read-out: Inhibitor Constants (Ki)) was 8.97; in assay [5] (Table 4, determined using human alphathrombin (footnote a), read-out: Ki), 8.97.

The values are drawn from patent US5658939A, “Methionine sulfone and S-substituted cysteine sulfone derivatives as enzyme inhibitors” (Corvas International Inc., priority 1995, dated 1997).
